These results are taken from patent publication US11096986B2, “Use of a neurofilament peptide for targeting neural stem cells” (Universite D'Angers, priority 2014, dated 2021).

The test system of data set [1] is neural stem cells. Description: CyQUANT cell proliferation assay. It counts as cell-based, rat. The procedure:
To analyse the NFL-TBS.40-63 peptide effect on the NSC proliferation, primary neurospheres were dissociated and 5.10^3 cells per well were plated on BD Cell-Tak (BD Biosciences) on 96 well microplate. Cells were treated with increased concentrations of biotinylated NFL-TBS.40-63 peptide, or with 1 μmol/L colchicine during 72 h at 37° C. After washes with PBS, cells were freezed at −80° C. Finally, the DNA concentration was analyzed using the CyQUANT cell proliferation assay kit (Molecular Probes).

Data set [2] relates to neural stem cells. Description: Cell cycle analysis by PI incorporation and FACS. It counts as cell-based, rat. The procedure:
[…] Neurospheres were then collected in a microcentrifuge tube. After centrifugation (5 min at 700 rpm), cells were dissociated mechanically and permeabilized with PBS-Tween 0.5% and fixed with ethanol 70% before adding 1 mg/mL RNase (Invitrogen) during 30 min at 37° C. The cell suspension was diluted in 10 μg/mL PI before DNA content analysis by flow cytometry.

For data set [3], the system named is neural stem cells. Kind of data set: Confocal microscopy of neurospheres (peptide uptake, α-tubulin microtubule network). The format is cell-based, rat. Here is the method:
To visualize the NFL-TBS40-63 peptide uptake in neural stem cells, neurospheres were plated on BD Cell-Tak (BD Biosciences) coverslips or LabTek chambers. After 24 h, neurospheres were incubated with 20 μmol/L FITC labelled NFL-TBS40-63 peptide for 30 min, 6 h or 72 h. Following PBS washing, cells were fixed with 4% paraformaldehyde for 15 min and washed three times in PBS. They were then incubated in a 0.5% triton X-100 permeabilization solution for 30 min and washed three times in PBS before incubation in a blocking solution (1% bovine serum albumin in 0.1% triton X-100) for 1 h. Neurospheres were then incubated overnight at 4° C. with mouse anti-α-tubulin antibody (Sigma) 1/1000. After three washes in PBS, tubulin was localized using an Alexa 568 nm anti-mouse antibody (Life Technologies) 1/200 for 2 h. Neurospheres were washed three times with PBS before adding 3 μmol/L 4′6-diaminido-2-phenylindole (DAPI, Sigma) for 5 min. Following PBS washing, coversplips were mounted with a ProLong Gold antifade solution (Life Technologies).

For data set [4], the system named is neural stem cells. Kind of data set: Cell viability by Annexin V/PI staining and FACS. The format is cell-based, rat. Here is the method: To analyse the cell viability in the presence of the NFL-TBS40-63 peptide, neurospheres were seeded in 35-mm dishes and then treated with increased concentrations of biotinylated peptide or with 1 μmol/L colchicine during 3 or 5 days at 37° C. Neurospheres were then collected in a microcentrifuge tube. After centrifugation (5 min at 700 rpm), cells were dissociated mechanically and stained with annexin-V FITC (Annexin-V FITC Kit, Miltenyi Biotec) for 15 min at room temperature. Finally, cells were counterstained with 1 μg/mL PI solution prior to analysis by flow cytometry.

Data set [5] relates to neural stem cells of newborn rats. Description: Uptake mechanism by FACS (4° C., ATP depletion, endocytosis inhibitors). The format is cell-based, rat. Here is the method: (§1) To evaluate the internalization of the FITC labelled NFL-TBS40-63 peptide by the fluorescence-activated cell sorting technique (FACS, Becton Dickinson), neurospheres were seeded in 35-mm dishes and cultured for 30 min at 37° C. in media containing FITC labelled NFL-TBS40-63 peptide at increasing concentrations. To quench the extracellular signal of the FITC labelled NFL-TBS40-63 peptide, 0.4% trypan blue (Sigma) was added before FACS analysis. To investigate the uptake mechanism, neurospheres were preincubated at 4° C. during 30 min, or with 10 mmol/L sodium azide in the presence of 6 mmol/L 2-deoxy-D-glucose to deplete cellular ATP, or with different inhibitors during 30 min at 37° C. Then 20 μmol/L FITC labelled peptide was added to the cells for 30 min at 37 C.°. Subsequently, after centrifugation (5 min at 700 rpm), cells were dissociated mechanically and washed twice with PBS, and then re-suspended in 50 μg/mL Propidium iodide (PI, Sigma). The fluorescent positive cells that incorporated the FITC labelled peptide were analyzed by flow cytometry (FACSCalibur, Becton Dickinson).
In general terms: A flow cytometer gives signals particle by particle.

Data set [6] has as its system neural stem cells. Description: Neurosphere forming analysis (primary neurospheres, adherence). The format is cell-based, rat. The procedure: (§2) To investigate neurosphere forming properties, 5.10^3 SVZ cells were seeded per well in a 24 wells plate in media containing 20 ng/mL EGF. Cells were incubated in the absence or presence of increasing concentrations of biotinylated peptide, or with 1 μg/mL colchicine. After 5-7 days, the total number of primary neurospheres and the percent of adherent primary neurospheres were determined in each condition by microscopy analysis, and pictures were taken with an inverted microscope and the Metamorph software. Then for self-renewal assay, primary neurospheres were collected in each condition, dissociated as single cells, and seeded in media containing 20 ng/mL EGF. After 5 days, the total number of secondary neurospheres was counted in each condition by microscopy analysis.

The subject of data set [7] is neural stem cells. Kind of data set: Self-renewal assay (secondary neurospheres). It counts as cell-based, rat. The note with it: primary neurospheres cultured with peptide, dissociated, 5 days in culture medium only. Here is the method:
as §2

The test system of data set [8] is PSA-NCAM expression on neural stem cells. Kind of data set: PSA-NCAM expression by flow cytometry. It counts as cell-based, rat. The settings on record: high peptide concentrations, 7 days. Here is the method: To quantify the PSA-NCAM expression on neural stem cells, neurospheres were seeded in 35-mm dishes and cultured for 7 days at 37° C. in media containing biotinylated NFL-TBS.40-63 peptide at increasing concentrations, or containing 1% new-born calf serum (NBCS). After dissociation, cells were incubated with the anti-PSA-NCAM antibody conjugated to R-phycoerythrin (PE) for 10 minutes at 4° C. (Miltenyi), washed and then re-suspended in 50 μg/mL PI. The fluorescent positive cells that expressed PSA-NCAM were analyzed by flow cytometry.

For data set [9], the system named is glioblastoma cells. The note with it: glioblastoma cells (Bocquet et al., 2009; Bergès et al., 2012); cited from earlier work.
The subject of data set [10] is neurones and astrocytes. The settings on record: neurones and astrocytes (Bocquet et al., 2009; Bergès et al., 2012); cited from earlier work.
In data set [11] the test system is neural stem cells of newborn rats. Description: FACS internalization of FITC labelled peptide in neurospheres of newborn rats. It counts as cell-based, rat. The note with it: for percentage of newborn NSCs that internalized the peptide: 30 min, FACS. The procedure:
(§3) Primary cultures of neural stem cells are derived from the sub-ventricular zone of newborn (1-5 days) or adults (<4 months) brain Wistar rats. The dissociated cells were grown in MEM alpha (PAA) supplemented with 25 mmol/L D-glucose (Sigma), 1 mmol/L Na Pyruvate, 15 mmol/L HEPES, 5% penicillin/streptomycin (PAA) and 1% B27 (Gibco), and containing 20 ng/mL EGF (Promega). After 5-7 days, stem cells formed floating neurospheres.
as §1

In data set [12] the test system is neural stem cells of adult rats. Kind of data set: FACS internalization of FITC labelled peptide in neurospheres of adult rats. It counts as cell-based, rat. The note with it: 40 μmol/L, 30 minutes. The procedure:
as §3
as §1, with “Subsequently, after centrifugation (5 min at 700 rpm), cells were dissociated mechanically and washed twice with PBS, and then re-suspended in 50 μg/mL Propidium iodide (PI, Sigma).” left out

In data set [13] the test system is adult neural stem cells in the SVZ. Description: Intra-ventricular injection of the peptide and immunohistochemistry of the SVZ. It counts as in vivo, rat. The procedure: Adult females Wistar rats were anesthetized by intraperitoneal injection of a mixture of ketamine 10% (80 mg/kg) and xylazine 2% (10 mg/kg). Animals were then placed on a stereotaxic apparatus (David Kopf instruments, Tujunga, Calif.), and a sagital incision was made through the skin to expose the cranium in which a small hole was made using a dental drill, at the appropriate coordinates (−0.8 mm anterior and 1.6 mm lateral to the bregma). A volume of […] of the FITC-peptide 1 mmol/L was injected, using a 10-μL Hamilton syringe (Hamilton glass syringe 70 RN) with a 32-G needle (Hamilton, VWR), at a depth of 4.3 mm from the outer border of the cranium into the right lateral ventricle, and connected through a cannula to a 100-μL Hamilton 22-G syringe (Hamilton glass syringe 810 RN) containing the peptide. A slow-infusion was performed by convection-enhanced delivery (CED) with an osmotic pump (Harvard Apparatus) at a flow rate of 0.5 μL/min. After injection and withdrawal of the needle (0.5 mm/min), the head skin was sutured. Animals were sacrificed 1 hour, 6 hours, or 24 hours after the injection, and brains were removed and frozen, before sectioning them using a Leica cryostat. […]

Where [14] appears, read: summary of proliferation and adhesion results.

Ends that are not written are not given here.

`COc1cc2c(c(OC)c1OC)-c1ccc(OC)c(=O)cc1[C@@H](NC(C)=O)CC2` [colchicine, reference compound]: the “neural stem cell proliferation (DNA concentration)” value in [1] (colchicine, anti-proliferative agent control) was “significant decrease”. Further, the “cellular cycle of NSC” value in [2] (1 μg/mL colchicine, positive control) was “affected”. Besides, in data set [3] (colchicine), the “microtubule network of NSC” value is reported as “profoundly affected”. Besides, the “number of viable NSC” value in data set [4] (colchicine, three days, Annexin V-FITC and PI) is “strongly reduced”.
With “YSSYSAPVSSSLSVRRSYSSSSGS (TBS motif of the human light chain neurofilament protein, amino acids) [NFL-TBS40-63 peptide]”, in [5] (ATP-depleted buffer 30 minutes before peptide, 20 μmol/L FITC labelled peptide), the “peptide uptake under ATP-depletion” value was “not affected”. In addition, the “peptide uptake at 4° C.” value in data set [5] (cells at 4° C. 30 minutes before peptide, 20 μmol/L FITC labelled peptide) is recorded as “not affected”. The “peptide uptake in the presence of inhibitors of endocytic and signalling pathways” value in [5] (chlorpromazine, PMA, DAM, wortmaninn, U0126, genistein, sunitinib, gefitinib pre-treatment 30 min, 20 μmol/L peptide) was “not affected”. In data set [6] (40 μmol/L peptide), the “adherence of primary neurospheres” value is given as “most of primary neurospheres were adherent”. Further, the “number of primary neurospheres compared to untreated control” value in data set [6] (increased peptide concentrations, 5 days, except for 100 μmol/L) is “did not change”. Moreover, the “adherence of primary neurospheres” value in data set [6] (peptide concentrations higher than 40 μmol/L) was “no floating neurospheres were observed”. Also, in [6] (setting [14]), the “high concentrations that affect both proliferation and adhesion of neural stem cells” value is at least 40 µmol/L; the “low concentrations that disrupt cell proliferation without effect on cell attachment” value is on record as “up to 20 μmol/L”. In data set [7], the “numbers of secondary neurospheres compared to control (self-renewal)” value was “significantly lower numbers of secondary neurospheres”. The “PSA-NCAM expression on the neural stem cells” value in [8] is “weak decrease”. In addition, the “neural stem cell proliferation (DNA concentration)” value in data set [1] (increased peptide concentrations, one week (72 h in method)) is “significant decrease”. In data set [2] (increased peptide concentrations, 48 h), the “cellular cycle of NSC” value is “remained unchanged”. Also, in data set [2] (with or without peptide, 48 h), the “cells in G1-phase” value is listed as 60-65%, the “cells in G2/M-phases” value is reported as about 7% and the “cells in S-phase” value is about 10%. Moreover, the “microtubule network of NSC” value in data set [3] (6 hours of incubation with the peptide (20 μmol/L FITC labelled)) is reported as “not affected”. The NSC cell viability entry in data set [4] is listed as “not modified”. In addition, in data set [9], the “concentration at which the peptide disrupts microtubule formation and the cellular cycle” value was “higher than 10 μm”. In addition, the “microtubule and cellular cycle disruption in normal cells” value in data set [10] is “not observed”.
Turning to “FITC-peptide: NFL-TBS40-63 peptide coupled to carboxy-fluorescein isothiocyanate (FITC) (YSSYSAPVSSSLSVRRSYSSSSGS; also: coupled to FITC, site not given here; UniProt P07196 40-63, looked up, fragment)”, the figures for the “percentage of newborn NSCs that internalized the peptide” value in data set [11] (5 μmol/L FITC-peptide) and in data set [11] (40 μmol/L FITC-peptide) were 38.72±9.08% and 91.07±5.13%, respectively. Also, in [11] (0.4% trypan blue added before FACS reading), the “peptide uptake after quenching of surface-bound fluorescence” value is recorded as “dose-dependent uptake of the peptide similar to that without quenching”. In addition, the “maximum threshold of peptide uptake in adult NSC (percentage of fluorescent cells)” value in [12] turned out to be 92.74±2.51%. Also, the “localisation of the peptide in brain sections” value in data set [13] (1 mmol/L FITC peptide in right lateral ventricle of adult rats, 1 hour after injection) is “localised in the right lateral ventricle, in the ependymal cells and a part was observed in the SVZ”. The cytotoxicity in vivo entry in data set [13] (after injection in right lateral ventricle, confocal analyses) is listed as “without causing detectable cytotoxicity”. In addition, the “internalization of the peptide by confocal microscopy” value in data set [3] (NSCs in the neurospheres and progenitor cells in the periphery, 20 μmol/L FITC labelled peptide) is “confirmed the internalization”.
